Tests used:
[1] = target: T1, human recombinant ghrelin receptor (GHS-R1a) (Homo sapiens, UniProt Q92847); test: Calcium assay, CHO-K1 cells expressing hGHS-R1a (Fluo-4); format: cell-based; conditions: for Emax: CHO-K1, relative to the Emax induced by MK-0677 (defined as 100%), read-out: hGHS-R1a Ca assay Emax/%
T1 construct: host or cells: CHO-K1
Method: (§1) Chinese hamster ovary (CHO-K1) cells expressing human recombinant ghrelin receptor (GHS-R1a) were purchased from Euroscreen (ES-410-C) and propagated in UltraCHO medium containing glutamine and supplemented with 1% heat inactivated foetal calf serum (FCS), 100 U/ml penicillin, 100 mg/l streptomycin and 0.8 g/l geneticin. Cells were sub-cultured twice a week with a 1:10 dilution. For passaging, cells were washed with 1× DPBS without calcium and magnesium, trypsinised for 10 min with 0.05% Trypsin/EDTA and resuspended in cell culture medium.
Cells were diluted to achieve 1×10^6 cells/ml, seeded in 384-well black clear bottom CellBind plates at 25000 cells/well (25u1) and incubated overnight at 37° C./5% CO2 Cells were expected to be 85-90% confluent on the day of assay (checked under the microscope) to ensure a high quality assay. Media was manually removed and 40 μl of loading solution containing probenecid and Fluo-4 no wash dye (a calcium indicator, Invitrogen F36206) were added to each well. After 30 min at 37° C. followed by another 30 min at RT, cpds were added to the wells. To generate a dose response up to 30 μM, 10 mM compound stocks in 100% (v/v) DMSO were firstly diluted in 50% (v/v) DMSO. Then, serial dilutions aimed at a full logarithmic dose responses (8 point) were performed in assay buffer [1×HBSS, 20 mM Hepes, 0.1% (w/v) BSA] to give 2.5% (v/v) DMSO and 5× final compound concentrations. The final assay DMSO concentration was 0.5% (v/v). After loading the cells with Fluo-4 containing solution, plates were read on a CeIlLux instrument (Perkin Elmer). A protocol set up to add 10 μl of 5× compound and to read the plate for 60sec after adding the compound at 17th sec was used. Fluorescence excitation took place at 494 nm and emission at 516 nm. EC50 values of agonists were calculated by fitting the percent stimulation over background [(Max-Min)/Min] using the nonlinear logistic function of the Prism 5 software (GraphPad, USA).

[2] = target: T1, human recombinant ghrelin receptor (GHS-R1a); test: cAMP assay (HTRF), CHO-hGHS-R1a cells; format: cell-based; conditions: for Emax / hGHS-R1a cAMP assay Emax/%: relative to the ghrelin response (defined as 100%)
Method: as §1
The Homogeneous Time-Resolved Fluorescence (HTRF) cAMP dynamic 2 kit (Cisbio International, France) was used as follows. CHO-hGHS—R1a or CHO-rGHS—R1a cells were seeded in a volume of 25 μl culture media at 10,000 cells/well (400,000 cells/ml) in Greiner white 384-well high volume plates and incubated overnight (18-24 h) at 37° C./5% CO2. Then, media was removed and 6 μl assay buffer [HBSS, 10 mM Hepes, 0.2% (w/v) BSA, 1.7 mM IBMX, (pH7.4)] were added to the wells. To generate a dose response up to 30 μM, 10 mM compound stocks in 100% (v/v) DMSO were firstly diluted in 50% (v/v) DMSO followed by a further dilution into assay buffer. Then, 4 μl of 2.5× compound (dose response as 9 point log serial dilution in assay buffer from 30 μM as maximum concentration) were added to each well achieving a final DMSO assay concentration of 0.8% (v/v). 0.1 μM forskolin was added as positive control. After 30 min (rGHS—R1a cell line) or 60 min (hGHS—R1a cell line) incubation at 37° C./5% CO2, 5 μl of cAMP-d2 and 5 μl of anti-cAMP antibody-cryptate, (both made in lysis buffer), were added to the plate followed by 1 h incubation at RT. During this time, cAMP produced by the cells competed with cAMP-d2 for the anti-cAMP antibody-cryptate molecule. Then, the plate was read on the Pherastar instrument (BMG, Germany) at two different emission wavelengths ([…]). Increasing levels of endogenous cAMP produced by cells could be followed by a decrease of FRET fluorescent signal and viceversa. Values represented by a change in arbitrary fluorescence ratios (665/620) were converted into cAMP concentrations by using a standard curve, the reagents for which were supplied with the kit. EC50 values of agonists were calculated using the nonlinear logistic function of the Prism 5 software (GraphPad, USA). Emax were expressed as relative values of the ghrelin response, which was defined as 100%.

[3] = test system: rat fundus; test: Rat fundus contractility assay (EFS-induced contraction of muscle strips); conditions: for EC50: increase of EFS-induced contraction, mean of preparations from at least 3 animals; for Emax / Emax/%: relative to the response to ghrelin (100 nM), defined as 100%
Method: Male Sprague Dawley rats (180-250 g) were culled by cervical dislocation and the fundus was removed. Each fundus was placed on a Krebs Henseleit (KH) buffer soaked dissection dish and cut along the long curvature to form a flattened sheet that was pinned in each corner. Four adjacent longitudinal strips (10×3 mm) were cut and the mucosa removed by sharp dissection. Each muscle strip was mounted in a 10 ml organ bath containing oxygenated KH at 37° C. Each strip was connected to an isometric force transducer, calibrated initially using a 5 g weight. The signal (g tension) was amplified and responses recorded by a Powerlab data capture system, connected to a computer running Labchart software (version 5.0). Tissues were placed under 1 g tension for an equilibration period of 30 min or until the baseline tension had stabilised. Carbachol (CCh, 100 nM) was then administered to establish the maximum contractile response of each preparation. Tissues were washed thoroughly and left for 30 min to re-equilibrate. Next, the muscle strips underwent electrical field stimulation (EFS). Maximal EFS pulse trains of 12V, 5 Hz, 0.1 msec pulse width, for 2 sec every 60 sec were applied until consistent electrically-stimulated phasic contractions were recorded. The voltage was then reduced in 1V increments until a consistent submaximal (EC50-75) EFS response was observed. Ghrelin (100 nM) was administered and left until a maximum response was obtained. Tissues were then washed thoroughly and left for 30 min. Once the EFS-induced contraction had re-stabilised, cumulative additions (10 nM-10 μM) of each test compound were administered. Individual responses were calculated by determining the peak of the EFS-induced contraction minus the baseline. […] The mean EC50 value for compounds was generated from data obtained on stomach preparations from at least 3 different animals.

T1 sequence (Q92847 whole entry): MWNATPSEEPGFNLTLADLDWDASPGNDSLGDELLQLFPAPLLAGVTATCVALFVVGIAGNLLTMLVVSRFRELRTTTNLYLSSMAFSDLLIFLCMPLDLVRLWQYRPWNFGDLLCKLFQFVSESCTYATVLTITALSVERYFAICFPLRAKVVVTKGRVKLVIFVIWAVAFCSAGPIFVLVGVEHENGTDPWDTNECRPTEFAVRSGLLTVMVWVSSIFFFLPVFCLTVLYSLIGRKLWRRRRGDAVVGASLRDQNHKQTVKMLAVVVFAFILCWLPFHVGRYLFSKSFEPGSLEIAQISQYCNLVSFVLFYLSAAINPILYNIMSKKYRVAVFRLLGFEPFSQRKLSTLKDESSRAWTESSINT

Row | Emax [1] [%] | Emax [2] [%] | EC50 ([3]; Rattus norvegicus) [nM] | SMILES | Emax ([3]; Rattus norvegicus) [%] | other results
1 | 103 | 176 | – | CN1CC(c2ccccc2)C2(CCCN(C(=O)[C@@H](CCCc3ccccc3)NC(=O)C(C)(C)N)C2)C1=O (single isomer, unassigned) [Example 1.32] | – | EC50 [3]: 19 nM; Emax/% [3]: 109%
2 | 101 | 129 | – | CN1CC(c2ccccc2)C2(CCN(C(=O)[C@@H](COCc3ccccc3)NC(=O)C(C)(C)N)C2)C1=O (single isomer, unassigned) [Example 8.0] | – | EC50 ([1]; CHO-K1 cells expressing hGHS-R1a, read-out: hGHS-R1a Ca assay EC50/μM): 0.0046 µM; EC50 ([2]; CHO-hGHS-R1a cells, 60 min incubation, maximum concentration 30 μM): 2.38 µM
3 | 96 | 127 | – | CN1CC(c2ccccc2)C2(CCCN(C(=O)[C@@H](COCc3ccccc3)NC(=O)C(C)(C)N)CC2)C1=O (single isomer, unassigned) [Example 9.0(iv)] | – | –
4 | 108 | 111 | – | CCC(N)(CC)C(=O)N[C@H](COCc1ccccc1)C(=O)N1CCC[C@@]2(C1)C(=O)N(C)C[C@H]2c1ccccc1 [Example 1.71, 2-amino-N-((R)-3-(benzyloxy)-1-((4S,5R)-2-methyl-1-oxo-4-phenyl-2,7-diazaspiro[4.5]decan-7-yl)-1-oxopropan-2-yl)-2-ethylbutanamide] | – | –
5 | 110 | 147 | – | Cc1ccc(COC[C@@H](NC(=O)C(C)(C)N)C(=O)N2CCCC3(C2)C(=O)N(C)CC3c2ccc(F)cc2)cc1 (stereo partly drawn) [Example 1.72, 2-amino-N-((2R)-1-(4-(4-fluorophenyl)-2-methyl-1-oxo-2,7-diazaspiro[4.5]decan-7-yl)-3-((4-methylbenzyl)oxy)-1-oxopropan-2-yl)-2-methylpropanamide] | – | –
6 | 79 | 1 | – | CN1CC(c2ccccc2)C2(CCCN(C(=O)[C@@H](COCc3ccccc3)NC(=O)C(C)(N)C(F)(F)F)C2)C1=O (stereo partly drawn) [Example 1.73, 2-amino-N-((2R)-3-(benzyloxy)-1-(2-methyl-1-oxo-4-phenyl-2,7-diazaspiro[4.5]decan-7-yl)-1-oxopropan-2-yl)-3,3,3-trifluoro-2-methylpropanamide] | – | –
7 | 103 | 123 | – | COc1ccc(C2CN(C)C(=O)C23CCCN(C(=O)[C@@H](COCc2ccccc2)NC(=O)C(C)(C)N)C3)cc1 (stereo partly drawn) [Example 1.74, 2-amino-N-((2R)-3-(benzyloxy)-1-(4-(4-methoxyphenyl)-2-methyl-1-oxo-2,7-diazaspiro[4.5]decan-7-yl)-1-oxopropan-2-yl)-2-methylpropanamide] | – | –
8 | 87 | 176 | – | CC(C)(C)CN1CC(c2ccccc2)C2(CCCN(C(=O)[C@@H](COCc3ccccc3)NC(=O)C(C)(C)N)C2)C1=O (stereo partly drawn) [Example 1.75, 2-amino-N-((2R)-3-(benzyloxy)-1-(2-neopentyl-1-oxo-4-phenyl-2,7-diazaspiro[4.5]decan-7-yl)-1-oxopropan-2-yl)-2-methylpropanamide] | – | –

Further lines, the compound ahead of its results:

Row | SMILES | Emax [1] [%] | Emax [2] [%] | EC50 ([3]; Rattus norvegicus) [nM] | Emax ([3]; Rattus norvegicus) [%] | other results
9 | CN1C[C@H](c2ccccc2)[C@]2(CCCN(C(=O)[C@@H](COCc3ccccc3)NC(=O)C(C)(C)N)C2)C1=O (single isomer, unassigned) [Example 1.0(i)] | 97 | 130 | 1700 | 104 | –
10 | CN1C[C@@H](c2ccccc2)[C@@]2(CCCN(C(=O)[C@@H](COCc3ccccc3)NC(=O)C(C)(C)N)C2)C1=O (single isomer, unassigned) [Example 1.0(ii)] | 100 | 141 | 13 | 66 | –
11 | CC(C)N1CC(c2ccccc2)C2(CCCN(C(=O)[C@@H](COCc3ccccc3)NC(=O)C(C)(C)N)C2)C1=O (single isomer, unassigned) [Example 1.5] | 96 | 195 | – | 80 | EC50 [3]: 35 nM
12 | CN1CC(c2ccc(F)cc2)C2(CCCN(C(=O)[C@@H](Cc3c[nH]c4ccccc34)NC(=O)C(C)(C)N)C2)C1=O (single isomer, unassigned) [Example 1.11] | 102 | 289 | 24 | 99 | –
13 | CC(C)N1CC(c2ccc(F)cc2)C2(CCCN(C(=O)[C@@H](Cc3cn(C)c4ccccc34)NC(=O)C(C)(C)N)C2)C1=O (single isomer, unassigned) [Example 1.15] | 112 | 331 | 36 | 123 | –
14 | CN(C)C(=O)CN1CC(c2ccccc2)C2(CCCN(C(=O)[C@@H](COCc3ccccc3)NC(=O)C(C)(C)N)C2)C1=O (single isomer, unassigned) [Example 1.16] | 101 | 210 | 13 | 124 | –
15 | CNC(C)(C)C(=O)N[C@H](COCc1ccccc1)C(=O)N1CCCC2(C1)C(=O)N(C)CC2c1ccccc1 (single isomer, unassigned) [Example 1.17] | 107 | 124 | 137 | 113 | –
16 | CN1CC(c2ccccc2)C2(CCCN(C(=O)[C@@H](COCc3ccccc3)NC(=O)C(C)(C)N)C2)C1=O (single isomer, unassigned) [Example 1.20] | 99 | – | – | – | hGHS-R1a cAMP assay Emax/% [2]: 169%; EC50 [3]: 393 nM; Emax/% [3]: 39%
17 | CN1CC(c2ccccc2)C2(CCCN(C(=O)[C@@H](COCc3ccccc3)NC(=O)C(C)(C)N)C2)C1=O (single isomer, unassigned) [Example 1.21] | – | – | – | – | hGHS-R1a Ca assay Emax/% ([1]; relative to the Emax induced by MK-0677 (defined as 100%)): 105%; hGHS-R1a cAMP assay Emax/% [2]: 122%; EC50 [3]: 84 nM; Emax/% [3]: 81%
18 | Cc1ccc(COC[C@@H](NC(=O)C(C)(C)N)C(=O)N2CCCC3(C2)C(=O)N(C)CC3c2ccc(F)cc2)cc1 (single isomer, unassigned) [Example 1.29] | 102 | 243 | 48 | 100 | –
